Laboratory results from paper PMC4814829, “Design, synthesis, crystallization and biological evaluation of new symmetrical biscationic compounds as selective inhibitors of human Choline Kinase α1 (ChoKα1)” (Scientific Reports, 2016).
Read-outs that look alike come from different tables or passages of the source.

Experiments:
purified human ChoKα1 = purified human ChoKα1 (Homo sapiens, UniProt P35790); assay: Determination of human choline kinase α1 activity ([methyl-14C]choline incorporation into phosphocholine); type: biochemical
Sequence of purified human ChoKα1 (P35790 whole entry): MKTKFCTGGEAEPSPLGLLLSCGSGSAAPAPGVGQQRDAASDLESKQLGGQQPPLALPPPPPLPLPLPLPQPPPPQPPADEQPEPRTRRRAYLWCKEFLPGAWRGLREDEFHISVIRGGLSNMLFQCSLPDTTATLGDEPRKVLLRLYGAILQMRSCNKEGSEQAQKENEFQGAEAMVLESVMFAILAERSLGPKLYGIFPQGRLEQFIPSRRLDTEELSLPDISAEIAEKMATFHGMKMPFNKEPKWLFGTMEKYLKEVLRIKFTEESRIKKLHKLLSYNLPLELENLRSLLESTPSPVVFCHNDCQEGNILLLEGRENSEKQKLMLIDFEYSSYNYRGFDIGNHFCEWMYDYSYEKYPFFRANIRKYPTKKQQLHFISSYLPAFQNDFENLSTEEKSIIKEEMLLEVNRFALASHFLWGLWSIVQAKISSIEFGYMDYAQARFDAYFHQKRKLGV
Procedure: The effect of the different inhibitors on human choline kinase (ChoK) was assayed in ChoKα1 purified as previously described[32]. In each experiment DMSO-assays were always run in parallel as a control. DMSO in no case exceeded a concentration of 0.1% in order to avoid unspecific ChoK inhibition. ChoK activity was assayed by measuring the rate of incorporation of ^14C from [methyl-^14C]choline into phosphocholine both in the presence or absence of different inhibitor concentrations. Briefly, the final reaction mixture contained 100 mM Tris (pH 8.5), 10 mM MgCl2, and 10 mM ATP, and 20 ng of purified ChoKα1. […] The assay was stopped by immersing the reaction tubes in boiling water for 3 min. Aliquots of the reaction mixture were applied to the origin of Silica Gel plates in the presence of phosphocholine (0.1 mg) and choline (0.1 mg) as carriers. The chromatography was developed in methanol/0.6% NaCl/28% NH4OH in water (50:50:5, v/v/v) as solvent. Phosphocholine was visualized under exposure to iodine vapor and the corresponding spot was scraped and transferred to scintillation vials for measurement of radioactivity by a Beckman 6000-TA (Madrid, Spain) liquid-scintillation counter. At least three experiments were performed in all assays.

A549 cells = assay: Antiproliferative MTT assay; type: cell-based; details: Homo sapiens, 72 h, mean ± SEM
Procedure: (§1) Human T-cell leukemia (Jurkat), human B-cell leukemia (RS 4,11) and human promyelocytic leukemia (HL-60) cells were grown in RPMI-1640 medium (Gibco, Milan, Italy). Breast adenocarcinoma (MCF-7 and MDA-MB-231), human non-small cell lung carcinoma (A549), human cervix carcinoma (HeLa), human prostate adenocarcinoma (PC-3), and human colon adenocarcinoma (HT-29) cells were grown in DMEM medium (Gibco, Milan, Italy). Both media were supplemented with 115 units/mL of penicillin G (Gibco, Milan, Italy), 115 μg/mL of streptomycin (Invitrogen, Milan, Italy) and 10% fetal bovine serum (Invitrogen, Milan, Italy). Stock solutions (10 mM) of the different compounds were obtained by dissolving them in DMSO. Individual wells of 96-well tissue-culture microtiter plates were inoculated with 100 μL of complete medium containing 8 × 10^3 cells. The plates were incubated at 37 °C in a humidified 5% CO2 incubator for 18 h prior to the experiments. After medium removal, 100 μL of fresh medium containing the test compound at different concentrations was added to each well and incubated at 37 °C for 72 h. The percentage of DMSO in the medium in no case exceeded 0.25%.

HL-60 cells = assay: Antiproliferative MTT assay; type: cell-based; details: Homo sapiens, 72 h, mean ± SEM
Procedure: as §1

HT-29 cells = assay: Antiproliferative MTT assay; type: cell-based; details: Homo sapiens, 72 h, mean ± SEM
Procedure: as §1

HeLa cells = assay: Antiproliferative MTT assay; type: cell-based; details: Homo sapiens, 72 h, mean ± SEM
Procedure: as §1

Jurkat cells = assay: Antiproliferative MTT assay; type: cell-based; details: Homo sapiens, 72 h, mean ± SEM
Procedure: as §1

MCF-7 cells = assay: Antiproliferative MTT assay; type: cell-based; details: Homo sapiens, MCF7, 72 h, mean ± SEM
Procedure: as §1

MDA-MB-231 cells = assay: Antiproliferative MTT assay; type: cell-based; details: Homo sapiens, 72 h, mean ± SEM
Procedure: as §1

PC-3 cells = assay: Antiproliferative MTT assay; type: cell-based; details: Homo sapiens, 72 h, mean ± SEM
Procedure: as §1

RS4,11 cells = assay: Antiproliferative MTT assay; type: cell-based; details: Homo sapiens, 72 h, mean ± SEM
Procedure: as §1

[1] = system: panel of nine different human tumor-cell lines; assay: Antiproliferative activity against the panel of nine human tumor-cell lines; type: cell-based; details: for GI50: Homo sapiens, range or bound over all tested cell lines, read-out: GI50 across the tumor-cell line panel
Procedure: as §1

PBL (+Pha) = assay: Antiproliferative assay in non-tumoral cells (MTT); type: cell-based; details: Homo sapiens, non-tumoral cells stimulated with phytohematoagglutinin, 72 h, mean ± SEM
Procedure: (§2) Peripheral mononuclear cells (PBMC) from healthy donors were obtained by separation on Lymphoprep (Fresenius KABI Norge AS) gradient. After extensive washing, cells were resuspended (1 × 10^6 cells/mL) in RPMI-1640 with 10% fetal bovine serum and incubated overnight. For cytotoxicity evaluations in proliferating PBL cultures, non-adherent cells were resuspended at 5 × 10^5 cells/mL in growth medium, containing 2.5 μg/mL PHA (Irvine Scientific). Different concentrations of the test compounds were added, and viability was determined 72 h later by the MTT test. For cytotoxicity evaluations in resting PBL cultures, non-adherent cells were resuspended (5 × 10^5 cells/mL) and treated for 72 h with the test compounds, as described above.

PBL (resting) = assay: Antiproliferative assay in non-tumoral cells (MTT); type: cell-based; details: Homo sapiens, 72 h, mean ± SEM
Procedure: as §2

Human fibroblasts = assay: Antiproliferative assay in non-tumoral cells; type: cell-based; details: Fibroblast, mean ± SEM
Description: Human fibroblasts from foreskin were isolated as previously described[58] and maintained in DMEM medium with 10% fetal bovine serum added.

human ChoKα1 = biological target: T1, human ChoKα1 (Homo sapiens, UniProt P35790); assay: Tryptophan fluorescence quenching; type: binding; details: mean ± S.D. of at least three independent experiments; 25 °C, enzyme 1 μM; read-out: HsChoKα1 Kd
T1 construct: made in house
T1 sequence (P35790 whole entry): as above
Procedure: All compounds were prepared in 100% DMSO. Their Kds against human ChoKα1 were measured by monitoring the quenching of tryptophan fluorescence. All experiments were performed in a Cary Eclipse spectrofluorometer (Varian) at 25 °C with the enzymes at 1 μM, and concentrations of compounds varying from 0.1 to 5 μM for ChoKα1 in 25 mM Tris, 150 mM NaCl, pH 7.5. Fluorescence emission spectra were recorded in the 300–400 nm range with an excitation wavelength of 280 nm, with slit width of 5 nm. Controls were determined by incubating the enzymes with equivalent amounts of DMSO. As indicated previously, data analysis was performed in Prism (GraphPad software) considering a model with a single binding site (Eq. 1), where F0 is the intrinsic fluorescence of the enzyme in the absence of quencher (Q), F1 is the observed fluorescence at a given quencher concentration, fa is the fractional degree of fluorescence, and Kd is the dissociation constant.

[2] = mean ± SEM, three independent experiments, read-out: IC50 ChoKα1 purified

Row | SMILES | IC50 (purified human ChoKα1) [nM] | GI50 (A549 cells) [nM] | GI50 (HL-60 cells) [nM] | GI50 (HT-29 cells) [nM] | GI50 (HeLa cells) [nM] | GI50 (Jurkat cells) [nM] | GI50 (MCF-7 cells) [nM] | GI50 (MDA-MB-231 cells) [nM] | GI50 (PC-3 cells) [nM] | GI50 (RS4,11 cells) [nM] | GI50 [1] [nM] | Antiproliferative activity in all cell lines (in words) [1] | IC50 (purified human ChoKα1; [2]) [nM] | GI50 (PBL (+Pha)) [nM] | GI50 (PBL (resting)) [nM] | GI50 (Human fibroblasts) [nM] | Kd (human ChoKα1) [nM]
1 | [Br-].[Br-].c1cc(OCCOc2ccc(C[N+]34CCC(CC3)CC4)cc2)ccc1C[N+]12CCC(CC1)CC2 [Compound 10d, 1,1′-(((ethane-1,2-diylbis(oxy))bis(4,1-phenylene))bis(methylene))bis(quinuclidinium) bromide] | 37500 ± 4450 | 61300 ± 16700 | 84100 ± 7400 | > 100000 | 16900 ± 2500 | > 100000 | 91400 ± 7600 | 74300 ± 2600 | 94300 ± 12400 | 37500 ± 4200 | > 10000 | total loss of activity | – | – | – | – | –
2 | c1ccc2c(c1)c(N1CCCCCC1)cc[n+]2Cc1ccc(OCCOc2ccc(C[n+]3ccc(N4CCCCCC4)c4ccccc43)cc2)cc1 [Compound 10j, 1,1′-(((ethane-1,2-diylbis(oxy))bis(4,1-phenylene))bis(methylene))bis(4-(azepan-1-yl)quinolinium) bromide] | – | 300 ± 68 | 420 ± 220 | 150 ± 80 | 170 ± 84 | 110 ± 26 | 110 ± 47 | 10 ± 5 | 90 ± 40 | 160 ± 12 | – | – | 1660 ± 90 | 95 ± 21 | 2000 ± 240 | 14300 ± 1200 | –
3 | c1cc(OCCOc2ccc(C[n+]3ccc(N4CCCC4)cc3)cc2)ccc1C[n+]1ccc(N2CCCC2)cc1 [Compound 10b, 1,1′-(((ethane-1,2-diylbis(oxy))bis(4,1-phenylene))bis(methylene))bis(4-(pyrrolidin-1-yl)pyridinium) bromide] | – | 2300 ± 1100 | 42 ± 5 | 4300 ± 420 | 82 ± 41 | 68 ± 16 | 170 ± 32 | 90 ± 20 | 4500 ± 1100 | 1120 ± 220 | 42 to 4500 | – | 9560 ± 1450 | 1880 ± 710 | 34800 ± 15600 | 30500 ± 9600 | –
4 | CN(C)c1cc[n+](Cc2ccc(CCCCc3ccc(C[n+]4ccc(N(C)c5ccc(Cl)cc5)cc4)cc3)cc2)cc1 [Compound 4, reference compound] | – | – | – | – | – | – | – | – | – | – | – | – | – | – | – | – | 110 ± 10
5 | CN(c1ccccc1)c1cc[n+](Cc2ccc(OCCOc3ccc(C[n+]4ccc(N(C)c5ccccc5)c5ccccc54)cc3)cc2)c2ccccc12 [Compound 10f, 1,1′-(((ethane-1,2-diylbis(oxy))bis(4,1-phenylene))bis(methylene))bis(4-(methyl(phenyl)amino)quinolinium) bromide] | – | 210 ± 60 | 63 ± 13 | 120 ± 17 | 150 ± 31 | 60 ± 2 | 170 ± 65 | 1 ± 1 | 470 ± 120 | 240 ± 50 | – | – | 6850 ± 810 | 100 ± 30 | 1400 ± 600 | 9800 ± 2500 | 295 ± 127
6 | OC1C[N+]2(Cc3ccc(OCCOc4ccc(C[N+]56CCC(CC5)C(O)C6)cc4)cc3)CCC1CC2.[Br-].[Br-] (stereo not drawn) [Compound 10e, 1,1′-(((ethane-1,2-diylbis(oxy))bis(4,1-phenylene))bis(methylene))bis(3-hydroxyquinuclidinium) bromide] | 9510 ± 1140 | > 100000 | > 100000 | 94000 ± 4200 | > 100000 | > 100000 | 50900 ± 11700 | 63200 ± 3900 | 48000 ± 1100 | 66000 ± 6600 | > 10000 | total loss of activity | – | – | – | – | –
7 | CN(c1ccc(Cl)cc1)c1cc[n+](Cc2ccc(OCCOc3ccc(C[n+]4ccc(N(C)c5ccc(Cl)cc5)c5ccc(Cl)cc54)cc3)cc2)c2cc(Cl)ccc12 [Compound 10i, 1,1′-(((ethane-1,2-diylbis(oxy))bis(4,1-phenylene))bis(methylene))bis(7-chloro-4-((4-chlorophenyl)(methyl)amino)quinolinium) bromide] | – | 290 ± 100 | 870 ± 280 | 1000 ± 150 | 1500 ± 730 | 760 ± 260 | 660 ± 70 | 150 ± 50 | 720 ± 90 | 500 ± 90 | – | – | 16200 ± 440 | – | – | – | –
8 | Clc1ccc2c(N3CCCCCC3)cc[n+](Cc3ccc(OCCOc4ccc(C[n+]5ccc(N6CCCCCC6)c6ccc(Cl)cc65)cc4)cc3)c2c1 [Compound 10k, 1,1′-(((ethane-1,2-diylbis(oxy))bis(4,1-phenylene))bis(methylene))bis(4-(azepan-1-yl)-7-chloroquinolinium) bromide] | – | 520 ± 20 | 180 ± 60 | 270 ± 50 | 260 ± 74 | 72 ± 13 | 280 ± 90 | 61 ± 3 | 110 ± 28 | 36 ± 8 | – | – | 2020 ± 80 | 34 ± 7 | 2100 ± 800 | 3200 ± 860 | 241 ± 30
9 | C[N+]1(C)CCOC(O)(c2ccc(-c3ccc(C4(O)C[N+](C)(C)CCO4)cc3)cc2)C1 (stereo not drawn) [HC-3, reference compound] | – | – | – | – | – | – | – | – | – | – | – | – | – | – | – | – | 180 ± 30
10 | CN(c1ccc(Cl)cc1)c1cc[n+](Cc2ccc(OCCOc3ccc(C[n+]4ccc(N(C)c5ccc(Cl)cc5)cc4)cc3)cc2)cc1 [Compound 10c, 1,1′-(((ethane-1,2-diylbis(oxy))bis(4,1-phenylene))bis(methylene))bis(4-((4-chlorophenyl)(methyl)amino)pyridinium) bromide] | – | 4900 ± 700 | 2100 ± 600 | 4300 ± 1100 | 5600 ± 250 | 7300 ± 500 | 3500 ± 720 | 2200 ± 270 | 3100 ± 700 | 2700 ± 130 | 2100 to 7300 | – | 1630 ± 140 | – | – | – | –
